Experiment [1] relates to HT-29 (human colorectal adenocarcinoma) cells. Nature of the experiment: CV (crystal violet) assay, HT-29 cells. It is filed as cell-based. Particulars: read-out: IC50 (mean ± SD), HT-29, CV. On the procedure: (§1) The cell proliferations of ligand precursors and organotin(IV) compounds were evaluated with the aid of MTT (3-(4,5-dimethylthiazol-2-yl)-2,5-12 diphenyltetrazolium bromide) and CV (crystal violet) assays toward prostate (PC-3), colon (HT-29), breast (MCF-7) and hepatic (HepG2) cancer cell lines, and normal mouse embryonic fibroblast cells (NIH 3T3). The cells were cultivated in T75 flasks containing 10 mL of complete medium and kept at 37 °C and 5% CO2 […]. The nutrient medium was RPMI-1640 (PAA Laboratories) supplemented with 10% foetal bovine serum, L-glutamine, and penicillin/streptomycin (Sigma). Afterward, 5.000 cells of PC-3 and MCF-7 and 1.500 cells of HT-29 and HepG2 were transferred into 96 well-plates and used for MTT and CV assays. For microscopy investigations as well as FACS measurements (except for ROS/RNS measurements), MCF-7 cells were seeded overnight in 6-well plates (150,000 cells/well) in […] of complete medium. […] In all assays, control cells were untreated MCF-7 cells incubated for the same time period as treated cells and treated with appropriate reagents in various assays. BD FACS Aria III was used for flow cytometry experiments and results were analysed using BD FACSDiva software (BD Biosciences, Heidelberg, Germany) and Cyflogic (V 1.2.1, CyFlo Ltd., Turku, Finland). A fluorescence microscope Invitrogen EVOS FL 2 Auto 2 Cell Imaging System was used for visualization of the cells as well as for detection of fluorescence in the cells.
(§2) Ligands HL1‒HL3, organotin(IV) compounds, and cisplatin were investigated in 9 different concentrations (100, 50, 10, 5, 1, 0.5, 0.1, 0.05, 0.01 μM). Using the complete medium, each stock solution of the test compounds (20 mM in DMSO) was diluted to obtain the working solution. The final concentration of DMSO never overstepped 0.5%, which is non-toxic to the cells. Three technical replicates were performed for each concentration. The treated cells were incubated for 48 h at 37 °C under 5% CO2 and the viability of the cells was determined using MTT and CV assays according to the literature procedure. The IC50 values, defined as 50% inhibitory concentration, were calculated with a four-parameter logistic function and presented in a mean. All experiments were performed in triplicate.

Experiment [2] deals with MCF-7 (breast cancer) cells. The experiment in a line: MTT assay, MCF-7 cells. It is filed as cell-based, human. Particulars: for IC50: read-out: IC50 (mean ± SD), MCF-7, MTT. On the procedure:
as §1, §2
Background: Tetrazolium assays rely on reduction of a dye to a coloured formazan, in cell work by metabolically active cells.

Experiment [3] has as its system HepG2 (hepatocellular cancer) cells. The experiment in a line: MTT assay, HepG2 cells. The class given is cell-based, human. Particulars: read-out: IC50 (mean ± SD), HepG2, MTT. On the procedure: as §1, §2
Experiment [4] concerns PC-3 (human prostate cancer) cells. Nature of the experiment: CV (crystal violet) assay, PC-3 cells. The class given is cell-based. Particulars: read-out: IC50 (mean ± SD), PC-3, CV. On the procedure:
as §1, §2

For experiment [5], the system named is PC-3, HT-29, MCF-7 and HepG2 tumour cell lines. Nature of the experiment: MTT and CV assays, panel of four tumour cell lines. The class given is cell-based, human. Particulars: applied concentrations up to 100 µM, 48 h. As for the experimental part: The in vitro anticancer activity of ligand precursors, HL1–HL3 and its organotin(IV) compounds was tested in a panel of four tumour cell lines: PC3 (prostate cancer cells), HT-29 (colon cancer cells), MCF-7 (breast cancer cells), and HepG2 (hepatic cancer cells), as well as on normal NIH3T3 cells (mouse embryonic fibroblast) using MTT and CV assays after 48 h of incubation.
The cell proliferations of ligand precursors and organotin(IV) compounds were evaluated with the aid of MTT (3-(4,5-dimethylthiazol-2-yl)-2,5-12 diphenyltetrazolium bromide) and CV (crystal violet) assays toward prostate (PC-3), colon (HT-29), breast (MCF-7) and hepatic (HepG2) cancer cell lines, and normal mouse embryonic fibroblast cells (NIH 3T3). The cells were cultivated in T75 flasks containing 10 mL of complete medium and kept at 37 °C and 5% CO2 […]. The nutrient medium was RPMI-1640 (PAA Laboratories) supplemented with 10% foetal bovine serum, L-glutamine, and penicillin/streptomycin (Sigma). Afterward, 5.000 cells of PC-3 and MCF-7 and 1.500 cells of HT-29 and HepG2 were transferred into 96 well-plates and used for MTT and CV assays. For microscopy investigations as well as FACS measurements (except for ROS/RNS measurements), MCF-7 cells were seeded overnight in 6-well plates (150,000 cells/well) in […] of complete medium. […] BD FACS Aria III was used for flow cytometry experiments and results were analysed using BD FACSDiva software (BD Biosciences, Heidelberg, Germany) and Cyflogic (V 1.2.1, CyFlo Ltd., Turku, Finland). A fluorescence microscope Invitrogen EVOS FL 2 Auto 2 Cell Imaging System was used for visualization of the cells as well as for detection of fluorescence in the cells.
Ligands HL1‒HL3, organotin(IV) compounds, and cisplatin were investigated in 9 different concentrations (100, 50, 10, 5, 1, 0.5, 0.1, 0.05, 0.01 μM). […] The treated cells were incubated for 48 h at 37 °C under 5% CO2 and the viability of the cells was determined using MTT and CV assays according to the literature procedure. […]

In experiment [6] the test system is HepG2 (hepatocellular cancer) cells. Nature of the experiment: CV (crystal violet) assay, HepG2 cells. It is filed as cell-based, human. Particulars: read-out: IC50 (mean ± SD), HepG2, CV. On the procedure: as §1, §2
The test system of experiment [7] is HT-29 (human colorectal adenocarcinoma) cells. Nature of the experiment: MTT assay, HT-29 cells. Particulars: read-out: IC50 (mean ± SD), HT-29, MTT. It is filed as cell-based. On the procedure: as §1, §2
Experiment [8] deals with NIH3T3 (normal mouse embryonic fibroblast) cells. The experiment in a line: CV (crystal violet) assay, NIH3T3 cells. It is filed as cell-based. Particulars: read-out: IC50 (mean ± SD), NIH3T3, CV. As for the experimental part:
as §1, §2

The subject of experiment [9] is PC-3 (human prostate cancer) cells. The experiment in a line: MTT assay, PC-3 cells. It is filed as cell-based. Particulars: read-out: IC50 (mean ± SD), PC-3, MTT. As for the experimental part: as §1, §2
Experiment [10] has as its system NIH3T3 (normal mouse embryonic fibroblast) cells. Nature of the experiment: MTT assay, NIH3T3 cells. It is filed as cell-based. Particulars: read-out: IC50 (mean ± SD), NIH3T3, MTT. On the procedure: as §1, §2
For experiment [11], the system named is MCF-7 (breast cancer) cells. Nature of the experiment: CV (crystal violet) assay, MCF-7 cells. The class given is cell-based, human. Particulars: read-out: IC50 (mean ± SD), MCF-7, CV. As for the experimental part:
as §1, §2

Where [12] appears, read: Homo sapiens, HT-29, CV assay, 48 h incubation.
Where [13] appears, read: Homo sapiens, MCF7, MTT assay, 48 h incubation.
Setting [14] is: Homo sapiens, HepG2, MTT assay, 48 h incubation.
Where [15] appears, read: Homo sapiens, PC-3, CV assay, 48 h incubation.
Where [16] appears, read: Homo sapiens, HepG2, CV assay, 48 h incubation.
[17] abbreviates: Homo sapiens, HT-29, MTT assay, 48 h incubation.
Where [18] appears, read: Mus musculus, NIH3T3, CV assay, 48 h incubation, normal cells.
Setting [19] is: Homo sapiens, PC-3, MTT assay, 48 h incubation.
[20] abbreviates: Mus musculus, NIH3T3, MTT assay, 48 h incubation, normal cells.
[21] abbreviates: Homo sapiens, MCF7, CV assay, 48 h incubation.
Where [22] appears, read: CV assay, 48 h incubation, normal cells.
Setting [23] is: MTT assay, 48 h incubation, normal cells.

In general, IC50 refers to the concentration that gives 50% inhibition. For the molecule `O=C(O)CCN1C(=O)NC(c2ccccc2)(c2ccccc2)C1=O` [HL3, 3-(2,5-Dioxo-4,4-diphenylimidazolidin-1-yl)propanoic acid], the IC50 in [1] (setting [12]), in experiment [2] (setting [13]), in [3] (setting [14]), in experiment [4] (setting [15]), in experiment [6] (setting [16]) and in experiment [7] (setting [17]) was > 100000 nM each time. Moreover, the IC50 in [8] (setting [18]), in [9] (setting [19]), in experiment [10] (setting [20]) and in [11] (setting [21]) was > 100000 nM each time. For the same molecule, the “influence on cell proliferation” value in experiment [5] was “did not affect cell proliferation in any cancer cell line tested”.
As to `O=C(O)CCc1nc(-c2ccccc2)c(-c2ccccc2)o1` [HL1, 3-(4,5-diphenyloxazol-2-yl)propanoic acid, reference compound], the IC50 in [1] (Homo sapiens, HT-29, 48 h) was > 100000 nM; in experiment [2] (Homo sapiens, MCF7, 48 h) it was > 100000 nM; in [3] (Homo sapiens, HepG2, 48 h), > 100000 nM; in experiment [4] (Homo sapiens, PC-3, 48 h), > 100000 nM; in [6] (Homo sapiens, HepG2, 48 h), > 100000 nM; in experiment [7] (Homo sapiens, HT-29, 48 h) it was > 100000 nM. For the same molecule, the IC50 is > 100000 nM in [8] (Mus musculus, NIH3T3, 48 h); > 100000 nM in [9] (Homo sapiens, PC-3, 48 h); > 100000 nM in [10] (Mus musculus, NIH3T3, 48 h); > 100000 nM in experiment [11] (Homo sapiens, MCF7, 48 h). Besides, the “influence on cell proliferation” value in experiment [5] was “did not affect cell proliferation in any cancer cell line tested”.
Consider `O=C(CCN1C(=O)NC(c2ccccc2)(c2ccccc2)C1=O)[O][Sn]([c]1ccccc1)([c]1ccccc1)[c]1ccccc1` [Ph3SnL3, (3-(2,5-Dioxo-4,4-diphenylimidazolidin-1-yl)propanoato)triphenyltin(IV)], for which the IC50 in experiment [1] (CV assay, 48 h incubation) was found to be 471 ± 48 nM; in [2] (MTT assay, 48 h incubation) it was 131 ± 17 nM; in experiment [3] (MTT assay, 48 h incubation), 100 ± 30 nM; in [4] (CV assay, 48 h incubation), 458 ± 29 nM; in [6] (CV assay, 48 h incubation), 255 ± 85 nM; in [7] (MTT assay, 48 h incubation), 218 ± 15 nM. Further, the IC50 in experiment [8] (setting [22]) stood at 2090 ± 1030 nM; in [9] (MTT assay, 48 h incubation), 211 ± 42 nM; in experiment [10] (setting [23]), 1820 ± 990 nM; in experiment [11] (CV assay, 48 h incubation), 219 ± 16 nM. Besides, the “fold higher activity compared to cisplatin against MCF-7” value in experiment [2] (Table 1 IC50 values, 48 h) is “up to 120 fold”.
For `COc1ccc(-c2nc(CCC(=O)O)oc2-c2ccc(OC)cc2)cc1` [HL2, 3-(4,5-bis(4-Methoxylphenyl)oxazol-2-yl)propanoic acid], the IC50 in experiment [1] (setting [12]), in [2] (setting [13]), in [3] (setting [14]), in experiment [4] (setting [15]), in experiment [6] (setting [16]) and in experiment [7] (setting [17]) was > 100000 nM in each case. The IC50 in [8] (setting [18]), in experiment [9] (setting [19]), in experiment [10] (setting [20]) and in [11] (setting [21]) was > 100000 nM each time. In addition, in experiment [5], the “influence on cell proliferation” value is “did not affect cell proliferation in any cancer cell line tested”.
“(3-(4,5-bis(4-Methoxylphenyl)oxazol-2-yl)propanoato)triphenyltin(IV) [Ph3SnL2]”: the IC50 in experiment [1] (CV assay, 48 h incubation) was determined as 727 ± 18 nM; in experiment [2] (MTT assay, 48 h incubation) it was 309 ± 59 nM; in experiment [3] (MTT assay, 48 h incubation), 223 ± 84 nM; in experiment [4] (CV assay, 48 h incubation), 785 ± 18 nM; in experiment [6] (CV assay, 48 h incubation), 628 ± 165 nM; in [7] (MTT assay, 48 h incubation) it was 453 ± 63 nM. Also, the IC50 in experiment [8] (setting [22]) was determined as 2610 ± 520 nM; in experiment [9] (MTT assay, 48 h incubation), 575 ± 43 nM; in [10] (setting [23]), 1990 ± 1120 nM; in experiment [11] (CV assay, 48 h incubation), 543 ± 26 nM.
